Values quoted from earlier work as cited in US11293915B2, “Bio-adhesive gels and methods of use” (Cornell University, priority 2014, dated 2022).

Conditions: DTT incorporated hydrogels, DTT concentrations up to 70 mM

With O[C@H](CS)[C@H](O)CS (racemic) [DTT, dithiothreitol] as the compound, how does the cytotoxicity read?
Its cytotoxicity is “do not cause significant cytotoxicity”.
